Values joined by “and” are separate entries in the source; they are usually repeats but may differ in a detail not shown here. Equal entries are not always repeated.
| Compound | melting point |
| --- | --- |
| Cc1ccccc1Cc1ccccc1 [2-methyldiphenylmethane] | 7 °C |
| Cc1ccccc1NC=O [2-methylformanilide] | 59 °C |
| Cc1ccco1 [2-methylfuran] | -89 °C |
| Cc1cc(O)ccc1O [2-methylhydroquinone] | 129 °C |
| CC(C)C(=O)O [2-methylpropanoic_acid] | -46 °C |
| Cc1c(O)cccc1O [2-methylresorcinol] | 120 °C |
| CCCc1c(O)cccc1O [2-n-propylresorcinol] | 103 °C |
| c1ccc(-c2nc3ccccc3nc2-c2ccc3ccccc3c2)cc1 [2-naphthalen-2-yl-3-phenylquinoxaline] | 122 °C |
| OB(O)c1ccc2ccccc2c1 [2-naphthaleneboronic acid] | 267 °C |
| Nc1cc(C(F)(F)F)ccc1[N+](=O)[O-] [2-nitro-5-(trifluoromethyl)aniline] | 100 °C |
| Nc1ccccc1[N+](=O)[O-] [2-nitroaniline] | 72 °C |
| O=C(O)c1ccccc1[N+](=O)[O-] [2-nitrobenzoic acid] | 148 °C |
| O=[N+]([O-])c1ccccc1O [2-nitrophenol] | 44.8 °C and 44.5 °C and 44 °C |
| O=C(O)CC1CCCC1=O (configuration not stated) [2-oxocyclopentylacetic acid] | 49 °C |
| O=C(O)CCC(=O)C(=O)O [2-oxopentanedioic acid] | 116 °C |
| CCCC(C)=O [2-pentanone] | -78 °C |
| O=C1CCCCC1c1ccccc1 (configuration not stated) [2-phenylcyclohexanone] | 58 °C |
| CC(C(=O)O)c1ccccc1 (configuration not stated) [2-phenylpropionic acid] | -5 °C |
| Cc1ccccn1 [2-picoline] | -70 °C |
| CC(C)O [2-propanol] | -88 °C |
| O=C1C(c2ccccn2)=Nc2ccccc21 [2-pyridin-2-yl-3H-indol-3-one] | 186 °C |
| O=C1CCCN1 [2-pyrrolidinone] | 24 °C |
| CCC(C)c1ccccc1O (configuration not stated) [2-sec-butylphenol] | 10 °C |
| Cc1ccc(O)c(C(C)(C)C)c1 [2-tert-butyl-4-methylphenol] | 52 °C |
| CCCCCCCCCCCC(C)=O [2-tridecanone] | 30 °C |
| CCCCCCCCCC(C)=O [2-undecanone] | 12 °C |
| O=C1C=C(NCCNc2ccccc2)C(=O)c2ccccc21 [2-{[2-(phenylamino)ethyl]amino}naphthalene-1,4-dione] | 141 °C |

| Compound | melting point |
| --- | --- |
| CC(=O)c1cccc(Br)c1 [3'-bromoacetophenone] | 8 °C |
| Nc1cccc(C(=O)c2cccc(N)c2)c1 [3,3'-diaminobenzophenone] | 150 °C |
| Nc1cccc(Cc2cccc(N)c2)c1 [3,3'-diaminodiphenylmethane] | 82 °C |
| C#CC(C)(C)C [3,3-Dimethylbut-1-yne] | -78 °C |
| C#CC(C)(C)C [3,3-dimethyl-1-butyne] [listing 1 of 2 here] | -78 °C |
| C#CC(C)(C)C [3,3-dimethyl-1-butyne] [listing 2 of 2 here] | -78 °C |
| O=c1c(O)c(-c2ccc(O)cc2)oc2ccccc12 [3,4'-dihydroxyflavone] | 286 °C |
| COc1cc(B(O)O)cc(OC)c1OC [3,4,5-trimethoxybenzeneboronic acid] | 245 °C |
| COc1cc(C(=O)O)cc(OC)c1OC [3,4,5-trimethoxybenzoic acid] | 170 °C |
| COC1CC(C(=O)Cl)CC(OC)C1OC (configuration not stated) [3,4,5-trimethoxycyclohexanecarbonyl chloride] | 82 °C |
| COc1cc(O)cc(OC)c1OC [3,4,5-trimethoxyphenol] | 146 °C |
| O=Cc1ccc(O)c(O)c1 [3,4-Dihydroxybenzaldehyde] | 154 °C |
| Cc1ccc(N)c(N)c1 [3,4-diaminotoluene] | 88 °C |
| ClCc1ccc(Cl)c(Cl)c1 [3,4-dichlorobenzyl chloride] | -3 °C |
| Oc1ccc(Cl)c(Cl)c1 [3,4-dichlorophenol] | 68 °C and 66 °C |
| COc1ccc(/C=C/[N+](=O)[O-])cc1OC [3,4-dimethoxy-beta-nitrostyrene] | 140 °C |
| COc1ccc(C=O)cc1OC [3,4-dimethoxybenzaldehyde] | 44 °C |
| COc1ccc(C(=O)O)cc1OC [3,4-dimethoxybenzoic acid] | 181 °C |
| O=C(O)c1cc([N+](=O)[O-])cc([N+](=O)[O-])c1 [3,5-Dinitrobenzoic acid] | 206 °C |
| Nc1cc(Cl)cc(Cl)c1 [3,5-dichloroaniline] | 53 °C |
| N#Cc1cc(I)c(O)c(I)c1 [3,5-diiodo-4-hydroxybenzonitrile] | 204 °C |
| O=C(O)c1cc([N+](=O)[O-])cc([N+](=O)[O-])c1 [3,5-dinitrobenzoic acid] | 206 °C |
| O=C(O)c1cc([N+](=O)[O-])cc([N+](=O)[O-])c1O [3,5-dinitrosalicylic acid] | 171 °C |
| O=NN1CN2CN(C1)CN(N=O)C2 [3,7-Dinitroso-1,3,5,7-tetraazabicyclo[3.3.1]nonane] | 207 °C |
| CC12CCC3C(CCC4CC(OCc5ccccc5)CCC43C)C1CCC2=O (configuration not stated) [3-(benzyloxy)androstan-17-one] | 220 °C |
| Cc1cc(C)c(C)c(CCl)c1C [3-(chloromethyl)-1,2,4,5-tetramethylbenzene] | 70.5 °C |
| Nc1cccc(C(F)(F)F)c1 [3-(trifluoromethyl)aniline] | 6 °C |

The remaining lines, values ahead:

| melting point | Compound |
| --- | --- |
| 44 °C | O=Cc1ccc(Cl)c(Cl)c1 [3,4-dichlorobenzaldehyde] |
| 195 °C | O=C(O)/C=C/c1ccc(F)c(F)c1 [3,4-difluorocinnamic acid] |
| 79 °C | Nc1ccc2c(c1)OCCCO2 [3,4-dihydro-2h-1,5-benzodioxepin-7-amine] |
| 188 °C | O=C(O)CC1Sc2ccccc2NC1=O (configuration not stated) [3,4-dihydro-3-oxo-2h-1,4-benzothiazine-2-acetic acid] |
| 51 °C | COc1ccc(C(C)=O)cc1OC [3,4-dimethoxyacetophenone] |
| 240 °C | COc1ccc(B(O)O)cc1OC [3,4-dimethoxybenzeneboronic acid] |
| 102 °C | Cc1ccc(C(N)=O)cc1C [3,4-dimethylbenzamide] |
| 220 °C | Cc1ccc(B(O)O)cc1C [3,4-dimethylbenzeneboronic acid] |
| -8 °C | CC1=CC(=O)CC(C)(C)C1 [3,5,5-Trimethylcyclohex-2-en-1-one] |
| 68 °C | O=Cc1cc(Cl)cc(Cl)c1 [3,5-Dichlorobenzaldehyde] |
| 188 °C | CC(C)(C)c1cc(C=O)cc(C(C)(C)C)c1O [3,5-di-tert-butyl-4-hydroxybenzaldehyde] |
| 220 °C | O=C(O)c1cc(Br)cc(Br)c1 [3,5-dibromobenzoic acid] |
| 57 °C | Cc1ccc(C(=O)c2cc(Cl)cc(Cl)c2)c(C)c1 [3,5-dichloro-2',4'-dimethylbenzophenone] |
| 32 °C | O=S(=O)(Cl)c1cc(Cl)cc(Cl)c1 [3,5-dichlorobenzenesulfonyl chloride] |
| 66 °C | N#Cc1cc(Cl)cc(Cl)c1 [3,5-dichlorobenzonitrile] |
| 26 °C | O=C(Cl)c1cc(Cl)cc(Cl)c1 [3,5-dichlorobenzoyl chloride] |
| 114 °C | COc1c(F)cc(F)cc1B(O)O [3,5-difluoro-2-methoxybenzeneboronic acid] |
| 136 °C | O=C(O)C(O)c1cc(F)cc(F)c1 (configuration not stated) [3,5-difluoromandelic acid] |
| 156 °C | COc1cc(C(=O)NN)cc(OC)c1O [3,5-dimethoxy-4-hydroxybenzhydrazide] |
| 34 °C | COc1cc(OC)cc(C(C)=O)c1 [3,5-dimethoxyacetophenone] |
| 46.3 °C | COc1cc(C=O)cc(OC)c1 [3,5-dimethoxybenzaldehyde] |
| 47 °C | COc1cc(O)cc(OC)c1 [3,5-dimethoxyphenol] |

| melting point | Compound |
| --- | --- |
| 9 °C | Cc1cc(C)cc(C=O)c1 [3,5-dimethylbenzaldehyde] |
| 236 °C | Cc1cc(C)cc(B(O)O)c1 [3,5-dimethylbenzeneboronic acid] |
| 107 °C | Cc1noc(C)c1B(O)O [3,5-dimethylisoxazole-4-boronic acid] |
| 63.4 °C and 65.5 °C | Cc1cc(C)cc(O)c1 [3,5-dimethylphenol] |
| 68 °C | Clc1ccc(Cl)nn1 [3,6-dichloropyridazine] |
| 210 °C | Cc1cc(O)c(C)c(=O)o1 [3,6-dimethyl-4-hydroxy-2-pyrone] |
| 59 °C | O=CC(=Cc1ccco1)c1ccccc1 [3-(2-furyl)-2-phenylpropenal] |
| 158 °C | CN(C)C(=O)Nc1ccc(Cl)c(Cl)c1 [3-(3,4-dichlorophenyl)-1,1-dimethylurea] |
| 160 °C | COc1ccc(C(=O)CCC(=O)O)cc1OC [3-(3,4-dimethoxybenzoyl)propionic acid] |
| 112 °C | O=C(O)CCc1cccc(O)c1 [3-(3-hydroxyphenyl)propionic acid] |
| 147 °C | O=C(O)CCC(=O)c1ccc(Br)cc1 [3-(4-bromobenzoyl)propionic acid] |
| 290 °C | O=C(O)CCc1ccc(C(=O)O)cc1 [3-(4-carboxyphenyl)propionic acid] |
| 101 °C | N#CC(=Cc1ccc(Cl)cc1)C(N)=O [3-(4-chlorophenyl)-2-cyanoacrylamide] |
| 126 °C | Cc1ccc(C(=O)CCC(=O)O)cc1 [3-(4-methylbenzoyl)propionic acid] |
| 83 °C | CN(C)c1cccc(O)c1 [3-(Dimethylamino)phenol] |
| 277 °C | O=S(=O)(O)CCCN1CCOCC1 [3-(Morpholin-4-yl)propane-1-sulfonic acid] |
| 96 °C | OCc1cccc(B(O)O)c1 [3-(hydroxymethyl)benzeneboronic acid] |
| 136 °C | COC(=O)c1cccc(B(O)O)c1 [3-(methoxycarbonyl)benzeneboronic acid] |
| 103 °C | O=C1OC(Sc2ccccc2)c2ccccc21 (configuration not stated) [3-(phenylsulfanyl)-2-benzofuran-1(3H)-one] |
| 80 °C | OB(O)c1cccc(OC(F)(F)F)c1 [3-(trifluoromethoxy)benzeneboronic acid] |
| 164 °C | OB(O)c1cccc(C(F)(F)F)c1 [3-(trifluoromethyl)benzeneboronic acid] |

— the Bradley open melting point set (2014)
